Source: PubChem BioAssay (NCI)
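Step 1: Grow cells in 96-well plates. Step 2: Expose to compound for 48 hours at 5 concentrations. Step 3: Interpolate endpoints linearly; if unreached, use highest concentration. GI50 is the concentration that inhibits growth by half. TGI denotes the concentration required for complete inhibition of growth.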

Experiments:
Assay in all cases: NCI tumour cell line growth inhibition, 48 h
CAKI-1 renal = test system: CAKI-1 renal
COLO 205 colon = test system: COLO 205 colon
CCRF-CEM leukemia = test system: CCRF-CEM leukemia
HT29 colon = test system: HT29 colon
HCC-2998 colon = test system: HCC-2998 colon
SK-MEL-2 melanoma = test system: SK-MEL-2 melanoma
HOP-62 NSCLC = test system: HOP-62 NSCLC
A549 NSCLC = test system: A549 NSCLC
MALME-3M melanoma = test system: MALME-3M melanoma
OVCAR-8 ovarian = test system: OVCAR-8 ovarian
MOLT-4 leukemia = test system: MOLT-4 leukemia
NCI-H522 lung = test system: NCI-H522 lung
SK-MEL-5 melanoma = test system: SK-MEL-5 melanoma
SN12C renal = test system: SN12C renal
SF-539 CNS = test system: SF-539 CNS
NCI-H226 lung = test system: NCI-H226 lung
A498 renal = test system: A498 renal
K-562 leukemia = test system: K-562 leukemia
UACC-62 melanoma = test system: UACC-62 melanoma
NCI/ADR-RES ovarian = test system: NCI/ADR-RES ovarian
UACC-257 melanoma = test system: UACC-257 melanoma
ACHN renal = test system: ACHN renal
786-0 renal = test system: 786-0 renal
TK-10 renal = test system: TK-10 renal
PC-3 prostate = test system: PC-3 prostate
NCI-H23 lung = test system: NCI-H23 lung
HCT-116 colon = test system: HCT-116 colon
SF-295 CNS = test system: SF-295 CNS
SW-620 colon = test system: SW-620 colon
DU-145 prostate = test system: DU-145 prostate
U251 CNS = test system: U251 CNS
RPMI-8226 leukemia = test system: RPMI-8226 leukemia
BT-549 breast = test system: BT-549 breast
SK-MEL-28 melanoma = test system: SK-MEL-28 melanoma
NCI-H460 lung = test system: NCI-H460 lung
MDA-MB-435 = test system: MDA-MB-435
SF-268 CNS = test system: SF-268 CNS
HCT-15 colon = test system: HCT-15 colon
UO-31 renal = test system: UO-31 renal
HL-60(TB) leukemia = test system: HL-60(TB) leukemia
SNB-19 CNS = test system: SNB-19 CNS
SK-OV-3 ovarian = test system: SK-OV-3 ovarian
KM12 colon = test system: KM12 colon
EKVX NSCLC = test system: EKVX NSCLC
RXF 393 renal = test system: RXF 393 renal
M14 melanoma = test system: M14 melanoma
OVCAR-3 ovarian = test system: OVCAR-3 ovarian
HOP-92 NSCLC = test system: HOP-92 NSCLC
IGROV1 ovarian = test system: IGROV1 ovarian
MCF7 breast = test system: MCF7 breast
MDA-MB-231 breast = test system: MDA-MB-231 breast
OVCAR-5 ovarian = test system: OVCAR-5 ovarian
LOX IMVI melanoma = test system: LOX IMVI melanoma
HS 578T breast = test system: HS 578T breast
SR leukemia = test system: SR leukemia
OVCAR-4 ovarian = test system: OVCAR-4 ovarian
SNB-75 CNS = test system: SNB-75 CNS
T-47D breast = test system: T-47D breast

CCCOc1cc2ccccc2cc1C(=O)Nc1nc(NC)c2c(ccc3nccc32)[nH]1
GI50 (CAKI-1 renal): 1760 nM | TGI (CAKI-1 renal): 3820 nM | GI50 (COLO 205 colon): 479 nM | TGI (COLO 205 colon): 1810 nM | GI50 (CCRF-CEM leukemia): 311 nM | TGI (CCRF-CEM leukemia): 1040 nM | GI50 (HT29 colon): 208 nM | TGI (HT29 colon): 446 nM | GI50 (HCC-2998 colon): 1110 nM | TGI (HCC-2998 colon): 2410 nM | GI50 (SK-MEL-2 melanoma): 325 nM | TGI (SK-MEL-2 melanoma): 1360 nM | GI50 (HOP-62 NSCLC): 779 nM | TGI (HOP-62 NSCLC): 2280 nM | GI50 (A549 NSCLC): 978 nM | TGI (A549 NSCLC): 2390 nM | GI50 (MALME-3M melanoma): 1150 nM | TGI (MALME-3M melanoma): 2540 nM | GI50 (OVCAR-8 ovarian): 890 nM | TGI (OVCAR-8 ovarian): 2300 nM | GI50 (MOLT-4 leukemia): 496 nM | TGI (MOLT-4 leukemia): 2320 nM | GI50 (NCI-H522 lung): 44.9 nM | TGI (NCI-H522 lung): 219 nM | GI50 (SK-MEL-5 melanoma): 994 nM | TGI (SK-MEL-5 melanoma): 2200 nM | GI50 (SN12C renal): 1720 nM | TGI (SN12C renal): 3480 nM | GI50 (SF-539 CNS): 623 nM | TGI (SF-539 CNS): 2060 nM | GI50 (NCI-H226 lung): 1650 nM | TGI (NCI-H226 lung): 3800 nM | GI50 (A498 renal): 359 nM | TGI (A498 renal): 1750 nM | GI50 (K-562 leukemia): 88.3 nM | TGI (K-562 leukemia): 912 nM | GI50 (UACC-62 melanoma): 556 nM | TGI (UACC-62 melanoma): 2120 nM | GI50 (NCI/ADR-RES ovarian): 550 nM | TGI (NCI/ADR-RES ovarian): 2480 nM | GI50 (UACC-257 melanoma): 1210 nM | TGI (UACC-257 melanoma): 2560 nM | GI50 (ACHN renal): 520 nM | TGI (ACHN renal): 1910 nM | GI50 (786-0 renal): 613 nM | TGI (786-0 renal): 2070 nM | GI50 (TK-10 renal): 1360 nM | TGI (TK-10 renal): 2680 nM | GI50 (PC-3 prostate): 494 nM | TGI (PC-3 prostate): 2000 nM | GI50 (NCI-H23 lung): 1100 nM | TGI (NCI-H23 lung): 2530 nM | GI50 (HCT-116 colon): 350 nM | TGI (HCT-116 colon): 1240 nM | GI50 (SF-295 CNS): 86.6 nM | TGI (SF-295 CNS): 1200 nM | GI50 (SW-620 colon): 383 nM | TGI (SW-620 colon): 1740 nM | GI50 (DU-145 prostate): 345 nM | TGI (DU-145 prostate): 1230 nM | GI50 (U251 CNS): 521 nM | TGI (U251 CNS): 1740 nM | GI50 (RPMI-8226 leukemia): 402 nM | TGI (RPMI-8226 leukemia): 1830 nM | GI50 (BT-549 breast): 1450 nM | TGI (BT-549 breast): 3020 nM | GI50 (SK-MEL-28 melanoma): 1140 nM | TGI (SK-MEL-28 melanoma): 2430 nM | GI50 (NCI-H460 lung): 348 nM | TGI (NCI-H460 lung): 1130 nM | GI50 (MDA-MB-435): 40.1 nM | TGI (MDA-MB-435): 197 nM | GI50 (SF-268 CNS): 559 nM | TGI (SF-268 CNS): 2050 nM | GI50 (HCT-15 colon): 240 nM | TGI (HCT-15 colon): 1030 nM | GI50 (UO-31 renal): 1170 nM | TGI (UO-31 renal): 2590 nM | GI50 (HL-60(TB) leukemia): 230 nM | TGI (HL-60(TB) leukemia): 611 nM | GI50 (SNB-19 CNS): 701 nM | TGI (SNB-19 CNS): 2230 nM | GI50 (SK-OV-3 ovarian): 473 nM | TGI (SK-OV-3 ovarian): 1780 nM | GI50 (KM12 colon): 295 nM | TGI (KM12 colon): 1460 nM | GI50 (EKVX NSCLC): 611 nM | TGI (EKVX NSCLC): 2040 nM | GI50 (RXF 393 renal): 404 nM | TGI (RXF 393 renal): 1680 nM | GI50 (M14 melanoma): 444 nM | TGI (M14 melanoma): 1980 nM | GI50 (OVCAR-3 ovarian): 248 nM | TGI (OVCAR-3 ovarian): 1130 nM | GI50 (HOP-92 NSCLC): 1150 nM | TGI (HOP-92 NSCLC): 2510 nM | GI50 (IGROV1 ovarian): 1170 nM | TGI (IGROV1 ovarian): 2710 nM | GI50 (MCF7 breast): 263 nM | TGI (MCF7 breast): 1310 nM | GI50 (MDA-MB-231 breast): 1340 nM | TGI (MDA-MB-231 breast): 2870 nM | GI50 (OVCAR-5 ovarian): 1400 nM | TGI (OVCAR-5 ovarian): 3000 nM | GI50 (LOX IMVI melanoma): 420 nM | TGI (LOX IMVI melanoma): 1760 nM | GI50 (HS 578T breast): 1420 nM | TGI (HS 578T breast): 3850 nM

Cc1c(O)c(OC2OC(CO)C(O)C(O)C2O)cc2c1CC[C@@H]1C2(C)C(=O)C[C@]2(C)[C@@H]([C@@](C)(O)C3CCC(C)(C)O3)[C@H](O)C[C@@]12C (stereo partly drawn)
TGI (CAKI-1 renal): > 100000 nM | TGI (COLO 205 colon): > 100000 nM | TGI (CCRF-CEM leukemia): > 100000 nM | TGI (HT29 colon): > 100000 nM | TGI (HCC-2998 colon): > 100000 nM | TGI (SK-MEL-2 melanoma): > 100000 nM | TGI (SR leukemia): > 100000 nM | TGI (HOP-62 NSCLC): > 100000 nM | TGI (A549 NSCLC): > 100000 nM | TGI (MALME-3M melanoma): > 100000 nM | TGI (OVCAR-8 ovarian): > 100000 nM | TGI (MOLT-4 leukemia): > 100000 nM | TGI (NCI-H522 lung): > 100000 nM | TGI (SK-MEL-5 melanoma): > 100000 nM | TGI (SN12C renal): > 100000 nM | TGI (SF-539 CNS): > 100000 nM | TGI (NCI-H226 lung): > 100000 nM | TGI (A498 renal): > 100000 nM | TGI (K-562 leukemia): > 100000 nM | TGI (UACC-62 melanoma): > 100000 nM | TGI (NCI/ADR-RES ovarian): > 100000 nM | TGI (UACC-257 melanoma): > 100000 nM | TGI (OVCAR-4 ovarian): > 100000 nM | TGI (ACHN renal): > 100000 nM | TGI (SNB-75 CNS): > 100000 nM | TGI (786-0 renal): > 100000 nM | TGI (TK-10 renal): > 100000 nM | TGI (PC-3 prostate): > 100000 nM | TGI (T-47D breast): > 100000 nM | TGI (NCI-H23 lung): > 100000 nM | TGI (HCT-116 colon): > 100000 nM | TGI (SF-295 CNS): > 100000 nM | TGI (SW-620 colon): > 100000 nM | TGI (DU-145 prostate): > 100000 nM | TGI (U251 CNS): > 100000 nM | TGI (BT-549 breast): > 100000 nM | TGI (SK-MEL-28 melanoma): > 100000 nM | TGI (NCI-H460 lung): > 100000 nM | TGI (MDA-MB-435): > 100000 nM | TGI (SF-268 CNS): > 100000 nM | TGI (HCT-15 colon): > 100000 nM | TGI (UO-31 renal): > 100000 nM | TGI (SNB-19 CNS): > 100000 nM | TGI (SK-OV-3 ovarian): > 100000 nM | TGI (KM12 colon): > 100000 nM | TGI (EKVX NSCLC): > 100000 nM | TGI (RXF 393 renal): > 100000 nM | TGI (M14 melanoma): > 100000 nM | TGI (OVCAR-3 ovarian): > 100000 nM | TGI (HOP-92 NSCLC): > 100000 nM | TGI (IGROV1 ovarian): > 100000 nM | TGI (MCF7 breast): > 100000 nM | TGI (MDA-MB-231 breast): > 100000 nM | TGI (OVCAR-5 ovarian): > 100000 nM | TGI (LOX IMVI melanoma): > 100000 nM
